Measured values: patent US20100056508A1, “AMINE DERIVATIVES AND THEIR USE IN BETA-2-ADRENORECEPTOR MEDIATED DISEASES” (ASTRAZENECA AB, priority 2006, published 2010)
Structures can show the parent of a compound that is named as a salt.

Columns and labels:
[1] = molecular target: T1, Adrenergic β2 (Homo sapiens, UniProt P07550); assay: Adrenergic β2 mediated cAMP production in H292 cells (AlphaScreen cAMP detection); assay type: cell-based; design: key to β2 Int Act: fraction of formoterol maximum activity (formoterol = 1); conditions: for β2 Int Act: Intrinsic Activity as a fraction relative to the maximum activity determined for formoterol; for EC50: cAMP production, 60 minutes at room temperature, 300 μM rolipram, read-out: β2 pEC50 (converted)
T1 construct: Adherent H292 cells were removed from tissue culture flasks; endogenous in cells; host or cells: H292 cells
T1 sequence (P07550 whole entry): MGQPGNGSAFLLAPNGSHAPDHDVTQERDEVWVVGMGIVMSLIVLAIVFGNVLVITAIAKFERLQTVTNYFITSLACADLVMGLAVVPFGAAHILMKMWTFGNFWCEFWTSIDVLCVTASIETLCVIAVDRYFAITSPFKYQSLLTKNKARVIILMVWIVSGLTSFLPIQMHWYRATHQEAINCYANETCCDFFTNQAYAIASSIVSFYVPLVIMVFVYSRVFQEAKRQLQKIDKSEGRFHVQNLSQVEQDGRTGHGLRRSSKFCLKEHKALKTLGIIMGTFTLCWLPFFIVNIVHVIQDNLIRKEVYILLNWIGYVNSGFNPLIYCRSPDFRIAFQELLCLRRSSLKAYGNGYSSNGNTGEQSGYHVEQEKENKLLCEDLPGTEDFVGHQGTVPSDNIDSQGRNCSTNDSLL
Procedure, shortened: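 H292 cells pre-treated 10 min with rolipram (300 μM final), then given agonist for 60 min at room temperature in HBSS/10 mM HEPES pH 7.4, 1.6% DMSO final. Lysate cAMP measured by AlphaScreen against a cAMP standard curve. Four-parameter fit gives pEC50; intrinsic activity relative to formoterol maximum.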

[2] = molecular target: T2, recombinant human α1D receptor (Homo sapiens, UniProt P25100); assay: Adrenergic α1D selectivity assay, [3H]-prazosin binding to membranes; conditions: inhibition of [3H]-prazosin binding, HEK cell membranes, read-out: α1 bind pIC50 (converted)
T2 construct: expressed in transfected cells; host or cells: human embryonic kidney 293 cells (HEK93 [sic]), membranes
T2 sequence (P25100 1-572): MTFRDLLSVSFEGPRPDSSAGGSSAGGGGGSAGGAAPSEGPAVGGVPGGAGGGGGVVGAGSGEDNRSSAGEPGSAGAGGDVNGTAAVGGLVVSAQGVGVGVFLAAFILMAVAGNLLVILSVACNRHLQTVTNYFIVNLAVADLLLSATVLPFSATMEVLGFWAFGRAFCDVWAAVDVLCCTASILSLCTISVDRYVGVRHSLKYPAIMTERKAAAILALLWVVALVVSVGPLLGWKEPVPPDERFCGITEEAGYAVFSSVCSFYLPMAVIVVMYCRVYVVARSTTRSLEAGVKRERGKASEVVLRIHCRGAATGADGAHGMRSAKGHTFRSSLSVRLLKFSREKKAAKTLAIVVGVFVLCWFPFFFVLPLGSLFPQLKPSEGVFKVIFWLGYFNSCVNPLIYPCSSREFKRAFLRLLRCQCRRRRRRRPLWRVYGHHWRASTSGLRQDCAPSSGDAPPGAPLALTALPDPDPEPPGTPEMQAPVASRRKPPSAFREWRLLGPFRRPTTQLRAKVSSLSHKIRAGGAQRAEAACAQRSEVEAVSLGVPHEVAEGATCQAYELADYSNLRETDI
Procedure, shortened: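 Competition binding on HEK293 membranes with recombinant human α1D receptor, 0.3 nM [3H]-prazosin, 50 mM HEPES/1 mM EDTA pH 7.4, 2 h at room temperature; filtration and scintillation counting. Non-specific binding defined with 10 μM BMY7378. pIC50 from four-parameter logistic fit of specific-binding inhibition.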

SMILES | β2 Int Act [1] | EC50 [1] | IC50 [2]
CCCC[C@@H](C)N(CCNCCc1ccc(O)c2c1OCC(=O)N2)C(=O)CCNCCc1ccc(Cl)s1 [Example 49, (R)-3-(2-(5-Chlorothiophen-2-yl)ethylamino)-N-(hexan-2-yl)-N-(2-(2-(5-hydroxy-3-oxo-3,4-dihydro-2H-benzo[b][1,4]oxazin-8-yl)ethylamino)ethyl)propanamide bis(trifluoroacetate)] | 1.01 | 2.51 nM | 316 nM
CCCC[C@@H](C)N(CCNCCc1ccc(O)c2c1OCC(=O)N2)C(=O)CCNCCc1cc(F)cc(Cl)c1 [Example 50, (R)-3-(3-Chloro-5-fluorophenethylamino)-N-(hexan-2-yl)-N-(2-(2-(5-hydroxy-3-oxo-3,4-dihydro-2H-benzo[b][1,4]oxazin-8-yl)ethylamino)ethyl)propanamide bis(trifluoroacetate)] | 0.89 | 1.26 nM | 200 nM
CCCC[C@@H](C)N(CCNCCc1ccc(O)c2c1OCC(=O)N2)C(=O)CCNCCc1cc(F)cc(F)c1 [Example 51, (R)-3-(3,5-Difluorophenethylamino)-N-(hexan-2-yl)-N-(2-(2-(5-hydroxy-3-oxo-3,4-dihydro-2H-benzo[b][1,4]oxazin-8-yl)ethylamino)ethyl)propanamide bis(trifluoroacetate)] | 0.94 | 1.58 nM | 316 nM
CCCC[C@@H](C)N(CCNCCc1ccc(O)c2c1OCC(=O)N2)C(=O)CCNCCc1ccc(F)c(F)c1 [Example 52, (R)-3-(3,4-Difluorophenethylamino)-N-(hexan-2-yl)-N-(2-(2-(5-hydroxy-3-oxo-3,4-dihydro-2H-benzo[b][1,4]oxazin-8-yl)ethylamino)ethyl)propanamide bis(trifluoroacetate)] | 0.95 | 10 nM | 200 nM
CCCC[C@@H](C)N(CCNCCc1ccc(O)c2c1OCC(=O)N2)C(=O)CCNCCc1cccc(F)c1F [Example 53, (R)-3-(2,3-Difluorophenethylamino)-N-(hexan-2-yl)-N-(2-(2-(5-hydroxy-3-oxo-3,4-dihydro-2H-benzo[b][1,4]oxazin-8-yl)ethylamino)ethyl)propanamide bis(trifluoroacetate)] | 0.99 | 6.31 nM | 200 nM
CCCC[C@@H](C)N(CCNCCc1ccc(O)c2c1OCC(=O)N2)C(=O)CCNCCc1cc(F)ccc1F [Example 54, (R)-3-(2,5-Difluorophenethylamino)-N-(hexan-2-yl)-N-(2-(2-(5-hydroxy-3-oxo-3,4-dihydro-2H-benzo[b][1,4]oxazin-8-yl)ethylamino)ethyl)propanamide bis(trifluoroacetate)] | 0.96 | 5.01 nM | 79.4 nM
CCCC[C@@H](C)N(CCNCCc1ccc(O)c2c1OCC(=O)N2)C(=O)CCNCCc1ccc(Cl)c(Cl)c1 [Example 55, (R)-3-(3,4-Dichlorophenethylamino)-N-(hexan-2-yl)-N-(2-(2-(5-hydroxy-3-oxo-3,4-dihydro-2H-benzo[b][1,4]oxazin-8-yl)ethylamino)ethyl)propanamide bis(trifluoroacetate)] | 0.92 | 31.6 nM | 251 nM
CCCC[C@@H](C)N(CCNCCc1ccc(O)c2c1OCC(=O)N2)C(=O)CCNCCc1cc(C)ccc1F [Example 56, (R)-3-(2-Fluoro-5-methylphenethylamino)-N-(hexan-2-yl)-N-(2-(2-(5-hydroxy-3-oxo-3,4-dihydro-2H-benzo[b][1,4]oxazin-8-yl)ethylamino)ethyl)propanamide bis(trifluoroacetate)] | 0.91 | 7.94 nM | 31.6 nM
CCCC[C@@H](C)N(CCNCCc1ccc(O)c2c1OCC(=O)N2)C(=O)CCNCCc1cc(F)ccc1C [Example 57, (R)-3-(5-Fluoro-2-methylphenethylamino)-N-(hexan-2-yl)-N-(2-(2-(5-hydroxy-3-oxo-3,4-dihydro-2H-benzo[b][1,4]oxazin-8-yl)ethylamino)ethyl)propanamide bis(trifluoroacetate)] | 0.91 | 7.94 nM | 100 nM
CC[C@@H](C)N(CCNCCc1ccc(O)c2c1OCC(=O)N2)C(=O)CCNCCc1ccc(Cl)c(Cl)c1 [Example 58, (R)—N-sec-Butyl-3-(3,4-dichlorophenethylamino)-N-(2-(2-(5-hydroxy-3-oxo-3,4-dihydro-2H-benzo[b][1,4]oxazin-8-yl)ethylamino)ethyl)propanamide dihydrochloride] | 0.91 | 7.94 nM | 100 nM
CC(C)[C@@H](C)N(CCNCCc1ccc(O)c2c1OCC(=O)N2)C(=O)CCNCCc1ccc(Cl)c(Cl)c1 [Example 59, (R)-3-(3,4-Dichlorophenethylamino)-N-(2-(2-(5-hydroxy-3-oxo-3,4-dihydro-2H-benzo[b][1,4]oxazin-8-yl)ethylamino)ethyl)-N-(3-methylbutan-2-yl)propanamide dihydrochloride] | 0.87 | 3.98 nM | 200 nM

Results, then the molecule that gave them:

β2 Int Act [1] | EC50 [1] | IC50 [2] | SMILES
0.84 | 3.16 nM | 20 nM | C[C@H](C1CCCCC1)N(CCNCCc1ccc(O)c2c1OCC(=O)N2)C(=O)CCNCCc1ccccc1 [Example 61, (R)—N-(1-Cyclohexylethyl)-N-(2-(2-(5-hydroxy-3-oxo-3,4-dihydro-2H-benzo[b][1,4]oxazin-8-yl)ethylamino)ethyl)-3-(phenethylamino)propanamide bis(trifluoroacetate)]
0.86 | 3.98 nM | 39.8 nM | Cc1cc(CCNCCC(=O)N(CCNCCc2ccc(O)c3c2OCC(=O)N3)C2CCCCCC2)ccc1F [Example 62, N-Cycloheptyl-3-(4-fluoro-3-methylphenethylamino)-N-(2-(2-(5-hydroxy-3-oxo-3,4-dihydro-2H-benzo[b][1,4]oxazin-8-yl)ethylamino)ethyl)propanamide bis(trifluoroacetate)]
0.79 | 2 nM | 100 nM | O=C1COc2c(CCNCCN(C(=O)CCNCCc3ccc(Cl)cc3)C3CCCCCC3)ccc(O)c2N1 [Example 63, 3-(4-Chlorophenethylamino)-N-cycloheptyl-N-(2-(2-(5-hydroxy-3-oxo-3,4-dihydro-2H-benzo[b][1,4]oxazin-8-yl)ethylamino)ethyl)propanamide bis(trifluoroacetate)]
0.88 | 0.631 nM | 63.1 nM | O=C1COc2c(CCNCCN(C(=O)CCNCCc3cc(F)ccc3F)C3CCCCCC3)ccc(O)c2N1 [Example 64, N-Cycloheptyl-3-(2,5-difluorophenethylamino)-N-(2-(2-(5-hydroxy-3-oxo-3,4-dihydro-2H-benzo[b][1,4]oxazin-8-yl)ethylamino)ethyl)propanamide bis(trifluoroacetate)]
0.93 | 1.58 nM | 398 nM | O=C1COc2c(CCNCCN(C(=O)CCNCCc3cc(F)cc(F)c3)C3CCCCCC3)ccc(O)c2N1 [Example 65, N-Cycloheptyl-3-(3,5-difluorophenethylamino)-N-(2-(2-(5-hydroxy-3-oxo-3,4-dihydro-2H-benzo[b][1,4]oxazin-8-yl)ethylamino)ethyl)propanamide bis(trifluoroacetate)]
0.99 | 2.51 nM | 398 nM | O=C1COc2c(CCNCCN(C(=O)CCNCCc3cc(F)cc(Cl)c3)C3CCCCCC3)ccc(O)c2N1 [Example 66, 3-(3-Chloro-5-fluorophenethylamino)-N-cycloheptyl-N-(2-(2-(5-hydroxy-3-oxo-3,4-dihydro-2H-benzo[b][1,4]oxazin-8-yl)ethylamino)ethyl)propanamide bis(trifluoroacetate)]
0.87 | 3.16 nM | 200 nM | O=C1COc2c(CCNCCN(C(=O)CCNCCc3ccc(F)c(F)c3)C3CCCCCC3)ccc(O)c2N1 [Example 67, N-Cycloheptyl-3-(3,4-difluorophenethylamino)-N-(2-(2-(5-hydroxy-3-oxo-3,4-dihydro-2H-benzo[b][1,4]oxazin-8-yl)ethylamino)ethyl)propanamide bis(trifluoroacetate)]
0.93 | 3.98 nM | 158 nM | O=C1COc2c(CCNCCN(C(=O)CCNCCc3cccc(Cl)c3)C3CCCCCC3)ccc(O)c2N1 [Example 68, 3-(3-Chlorophenethylamino)-N-cycloheptyl-N-(2-(2-(5-hydroxy-3-oxo-3,4-dihydro-2H-benzo[b][1,4]oxazin-8-yl)ethylamino)ethyl)propanamide bis(trifluoroacetate)]
